Measured values taken from publication PMC4505686 (ACS Chemical Neuroscience, 2015).
Substitutions are numbered along the chain they refer to.

Legend:
5-HT3 receptor (5-HT3A) [1] = target: T1, 5-HT3 receptor (5-HT3A) (Homo sapiens, UniProt P46098, N123Q); test: membrane potential dye fluorescence, FlexStation, transfected HEK293 cells; assay type: cell-based; details: read-out: varenicline EC50
T1 construct: gene HTR3A; full-length cDNA in pcDNA3.1, transiently expressed in HEK293 cells; homopentamer (also in Xenopus oocytes)
T1 sequence (P46098 24-478 N123Q): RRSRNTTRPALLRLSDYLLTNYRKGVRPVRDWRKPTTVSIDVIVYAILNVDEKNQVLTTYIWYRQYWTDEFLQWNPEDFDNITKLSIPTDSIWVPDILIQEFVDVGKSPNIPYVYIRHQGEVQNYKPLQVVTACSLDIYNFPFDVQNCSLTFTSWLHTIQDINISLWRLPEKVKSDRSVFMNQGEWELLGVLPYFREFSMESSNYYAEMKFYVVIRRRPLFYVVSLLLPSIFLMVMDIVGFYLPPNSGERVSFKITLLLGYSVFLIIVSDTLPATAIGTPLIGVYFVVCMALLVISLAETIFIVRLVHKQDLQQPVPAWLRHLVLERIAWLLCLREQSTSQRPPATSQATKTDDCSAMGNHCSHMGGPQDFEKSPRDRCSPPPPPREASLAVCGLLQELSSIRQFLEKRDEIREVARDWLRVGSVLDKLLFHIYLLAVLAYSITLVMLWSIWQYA

5-HT3 receptor (5-HT3A) [2] = target: T2, 5-HT3 receptor (5-HT3A) (Homo sapiens, UniProt P46098); test: as above; assay type: cell-based; details: read-out: varenicline EC50
T2 construct: gene HTR3A; full-length cDNA in pcDNA3.1, transiently expressed in HEK293 cells; homopentamer (also in Xenopus oocytes)
T2 sequence (P46098 24-478): T1 sequence (P46098 24-478 N123Q) with Q100N

5-HT3 receptor (5-HT3A) [3] = target: T3, 5-HT3 receptor (5-HT3A) (Homo sapiens, UniProt P46098, Y89A); test: as above; assay type: cell-based; details: read-out: varenicline EC50
T3 construct: gene HTR3A; full-length cDNA in pcDNA3.1, transiently expressed in HEK293 cells; homopentamer (also in Xenopus oocytes)
T3 sequence (P46098 24-478 Y89A): T1 sequence (P46098 24-478 N123Q) with Y66A, Q100N

5-HTBP = 5-HTBP (Aplysia californica, UniProt Q8WSF8, Q74R/S111E/V159L/K160T); test: X-ray crystal structure, […] Å; assay type: binding; details: co-crystallised, 5 mM varenicline (tartrate) with 6 mg/mL protein; orthosteric site, all five sites
5-HT3 receptor (5-HT3A) [4] = target: T4, 5-HT3 receptor (5-HT3A) (Homo sapiens, UniProt P46098, W85Y); test: membrane potential dye fluorescence, FlexStation, transfected HEK293 cells; assay type: cell-based; details: read-out: varenicline EC50
T4 construct: gene HTR3A; full-length cDNA in pcDNA3.1, transiently expressed in HEK293 cells; homopentamer (also in Xenopus oocytes)
T4 sequence (P46098 24-478 W85Y): T1 sequence (P46098 24-478 N123Q) with W62Y, Q100N

5-HT3 receptor (5-HT3A) [5] = target: T5, 5-HT3 receptor (5-HT3A) (Homo sapiens, UniProt P46098, Y148A); test: as above; assay type: cell-based; details: read-out: varenicline EC50
T5 construct: gene HTR3A; full-length cDNA in pcDNA3.1, transiently expressed in HEK293 cells; homopentamer (also in Xenopus oocytes)
T5 sequence (P46098 24-478 Y148A): T1 sequence (P46098 24-478 N123Q) with Q100N, Y125A

5-HT3 receptor (5-HT3A) [6] = target: T6, 5-HT3 receptor (5-HT3A) (Homo sapiens, UniProt P46098, W178Y); test: as above; assay type: cell-based; details: read-out: varenicline EC50
T6 construct: gene HTR3A; full-length cDNA in pcDNA3.1, transiently expressed in HEK293 cells; homopentamer (also in Xenopus oocytes)
T6 sequence (P46098 24-478 W178Y): T1 sequence (P46098 24-478 N123Q) with Q100N, W155Y

[7] = target: 5-HT binding protein (5-HTBP), an acetylcholine binding protein (AChBP) from Aplysia californica engineered to bind 5-HT (Aplysia californica); test: crystal structure; 5-HTBP at 6 mg/mL mixed with 5 mM varenicline; space group P4(1)2(1)2; 2.3 Å; one pentamer per asymmetric unit

Chain of 5-HTBP (Q8WSF8 entry or part of it Q74R/S111E/V159L/K160T): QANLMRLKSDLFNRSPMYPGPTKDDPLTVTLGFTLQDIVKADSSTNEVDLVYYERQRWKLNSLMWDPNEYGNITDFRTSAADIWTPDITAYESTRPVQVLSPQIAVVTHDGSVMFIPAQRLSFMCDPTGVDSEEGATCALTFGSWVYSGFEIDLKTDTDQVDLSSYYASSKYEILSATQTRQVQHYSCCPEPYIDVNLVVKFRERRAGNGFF

stoichiometry N [7] | Molecule | EC50 (5-HT3 receptor (5-HT3A) [1]) [µM] | EC50 (5-HT3 receptor (5-HT3A) [2]) [µM] | EC50 (5-HT3 receptor (5-HT3A) [3]) [µM] | X-ray crystal structure, 2.3 Å (5-HTBP) | EC50 (5-HT3 receptor (5-HT3A) [4]) [µM] | EC50 (5-HT3 receptor (5-HT3A) [5]) [µM] | EC50 (5-HT3 receptor (5-HT3A) [6]) [µM]
– | c1cnc2cc3c(cc2n1)C1CNCC3C1 [varenicline] | 26 | 0.42 | 0.13 | three-dimensional structure of 5-HTBP in complex with varenicline | 2.9 | 9.4 | 38
5 | 5-HT binding protein (5-HTBP), an acetylcholine binding protein (AChBP) from Aplysia californica engineered to bind 5-HT (natural protein) | – | – | – | – | – | – | –
